Key:
Format in all cases: cell-based
ABCB4 WT = target: T1, ABCB4 WT (Homo sapiens, UniProt P21439); assay: ABCB4 WT assay: HiBit protein expression; settings: HEK-293 cells stably expressing HiBit-tagged ABCB4 WT; 24 h treatment; top concentration 30 μM; read-out: ABCB4 WT EC50, Emax
T1 construct: expressed in transfected cells
Procedure, shortened: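 HEK-293 cells stably expressing HiBit-tagged human ABCB4 WT, treated 24 h at 37 °C with 11-dose 3-fold dilutions, top final 30 μM in 0.3% DMSO. HiBit lytic reagent luminescence read after 1 h at 25 °C; Emax and EC50 derived.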

ABCA4 P1380L = target: T2, ABCA4 P1380L (Homo sapiens, UniProt P78363, P1380L); assay: A4 correction dose-response assay: ABCA4 P1380L HiBit protein expression; settings: HEK-293 cells stably expressing HiBit-tagged ABCA4 P1380L; 24 h treatment; top concentration 30 μM; read-out: ABCA4 P1380L EC50, Emax
T2 construct: expressed in transfected cells
T2 sequence (P78363 whole entry P1380L): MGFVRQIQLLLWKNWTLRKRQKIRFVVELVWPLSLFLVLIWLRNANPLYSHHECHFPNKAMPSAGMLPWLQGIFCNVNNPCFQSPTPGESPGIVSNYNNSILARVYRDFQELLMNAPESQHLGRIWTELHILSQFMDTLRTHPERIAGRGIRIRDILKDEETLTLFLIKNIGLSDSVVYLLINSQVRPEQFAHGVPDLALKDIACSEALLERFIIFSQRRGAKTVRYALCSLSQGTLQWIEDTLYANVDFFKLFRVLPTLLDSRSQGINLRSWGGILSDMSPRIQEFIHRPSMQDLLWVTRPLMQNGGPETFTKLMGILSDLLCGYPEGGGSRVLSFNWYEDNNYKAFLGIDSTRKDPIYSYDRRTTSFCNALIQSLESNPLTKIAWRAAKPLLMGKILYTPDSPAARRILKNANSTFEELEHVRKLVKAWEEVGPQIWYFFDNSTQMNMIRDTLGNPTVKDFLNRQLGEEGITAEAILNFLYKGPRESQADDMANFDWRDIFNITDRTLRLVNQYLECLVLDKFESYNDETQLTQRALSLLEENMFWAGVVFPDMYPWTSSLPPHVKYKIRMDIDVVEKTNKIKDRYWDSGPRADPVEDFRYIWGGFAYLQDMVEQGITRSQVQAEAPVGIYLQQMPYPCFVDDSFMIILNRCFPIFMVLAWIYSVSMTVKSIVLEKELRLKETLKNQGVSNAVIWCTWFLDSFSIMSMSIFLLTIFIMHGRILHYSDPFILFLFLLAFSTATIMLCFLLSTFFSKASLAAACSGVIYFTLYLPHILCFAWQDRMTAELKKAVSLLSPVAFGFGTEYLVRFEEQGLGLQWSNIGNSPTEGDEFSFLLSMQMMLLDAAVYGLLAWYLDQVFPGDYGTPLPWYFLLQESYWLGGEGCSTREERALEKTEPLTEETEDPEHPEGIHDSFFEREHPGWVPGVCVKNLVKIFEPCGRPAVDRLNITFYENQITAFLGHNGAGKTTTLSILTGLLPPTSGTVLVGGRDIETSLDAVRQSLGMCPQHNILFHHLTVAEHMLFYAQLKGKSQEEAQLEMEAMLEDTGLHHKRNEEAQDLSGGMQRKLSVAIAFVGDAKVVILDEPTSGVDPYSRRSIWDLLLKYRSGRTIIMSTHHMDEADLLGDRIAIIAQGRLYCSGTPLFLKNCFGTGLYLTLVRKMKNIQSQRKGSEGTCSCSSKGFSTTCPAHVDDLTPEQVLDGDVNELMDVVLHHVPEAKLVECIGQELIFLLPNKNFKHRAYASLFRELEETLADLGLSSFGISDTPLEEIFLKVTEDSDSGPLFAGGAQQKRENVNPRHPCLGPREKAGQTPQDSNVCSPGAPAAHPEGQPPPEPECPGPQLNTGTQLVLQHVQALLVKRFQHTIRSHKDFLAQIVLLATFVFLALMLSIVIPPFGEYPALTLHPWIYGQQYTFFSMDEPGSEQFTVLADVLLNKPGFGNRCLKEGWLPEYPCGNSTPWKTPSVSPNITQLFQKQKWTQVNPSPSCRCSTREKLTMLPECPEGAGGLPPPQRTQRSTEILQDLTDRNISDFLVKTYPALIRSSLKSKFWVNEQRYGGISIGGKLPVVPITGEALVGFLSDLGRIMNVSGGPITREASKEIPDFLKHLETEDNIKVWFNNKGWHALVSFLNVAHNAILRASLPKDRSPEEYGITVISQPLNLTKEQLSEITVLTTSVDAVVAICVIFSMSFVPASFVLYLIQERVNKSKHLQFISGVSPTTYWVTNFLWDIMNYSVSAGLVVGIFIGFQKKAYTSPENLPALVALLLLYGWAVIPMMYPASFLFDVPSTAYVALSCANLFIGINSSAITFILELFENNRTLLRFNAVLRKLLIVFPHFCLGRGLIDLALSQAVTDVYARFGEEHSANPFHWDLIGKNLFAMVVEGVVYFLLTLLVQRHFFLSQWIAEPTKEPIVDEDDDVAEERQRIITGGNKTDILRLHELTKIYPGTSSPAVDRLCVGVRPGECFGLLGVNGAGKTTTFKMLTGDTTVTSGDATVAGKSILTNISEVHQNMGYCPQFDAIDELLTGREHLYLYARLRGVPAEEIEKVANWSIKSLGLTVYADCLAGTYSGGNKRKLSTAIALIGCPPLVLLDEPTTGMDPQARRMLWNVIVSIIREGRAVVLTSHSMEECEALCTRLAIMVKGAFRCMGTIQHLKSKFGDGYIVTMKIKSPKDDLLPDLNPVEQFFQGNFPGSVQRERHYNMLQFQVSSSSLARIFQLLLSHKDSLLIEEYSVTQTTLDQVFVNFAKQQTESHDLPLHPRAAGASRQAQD
Procedure, shortened: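 Cells transfected with HiBit-tagged human ABCA4 P1380L cDNA were treated for 24 h at 37°C with an eleven-point dilution series (top final 30 μM, 0.3% DMSO).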

ABCC6 WT = target: T3, ABCC6 WT (Homo sapiens, UniProt O95255); assay: ABCC6 WT assay: HiBit protein expression; settings: HEK-293 cells transiently expressing HiBit-tagged ABCC6 WT; 24 h treatment; top concentration 20 μM; read-out: ABCC6 WT EC50, Emax
T3 construct: expressed in transfected cells; host or cells: HEK-293 (transient, Lipofectamine 2000)
T3 sequence (O95255 whole entry): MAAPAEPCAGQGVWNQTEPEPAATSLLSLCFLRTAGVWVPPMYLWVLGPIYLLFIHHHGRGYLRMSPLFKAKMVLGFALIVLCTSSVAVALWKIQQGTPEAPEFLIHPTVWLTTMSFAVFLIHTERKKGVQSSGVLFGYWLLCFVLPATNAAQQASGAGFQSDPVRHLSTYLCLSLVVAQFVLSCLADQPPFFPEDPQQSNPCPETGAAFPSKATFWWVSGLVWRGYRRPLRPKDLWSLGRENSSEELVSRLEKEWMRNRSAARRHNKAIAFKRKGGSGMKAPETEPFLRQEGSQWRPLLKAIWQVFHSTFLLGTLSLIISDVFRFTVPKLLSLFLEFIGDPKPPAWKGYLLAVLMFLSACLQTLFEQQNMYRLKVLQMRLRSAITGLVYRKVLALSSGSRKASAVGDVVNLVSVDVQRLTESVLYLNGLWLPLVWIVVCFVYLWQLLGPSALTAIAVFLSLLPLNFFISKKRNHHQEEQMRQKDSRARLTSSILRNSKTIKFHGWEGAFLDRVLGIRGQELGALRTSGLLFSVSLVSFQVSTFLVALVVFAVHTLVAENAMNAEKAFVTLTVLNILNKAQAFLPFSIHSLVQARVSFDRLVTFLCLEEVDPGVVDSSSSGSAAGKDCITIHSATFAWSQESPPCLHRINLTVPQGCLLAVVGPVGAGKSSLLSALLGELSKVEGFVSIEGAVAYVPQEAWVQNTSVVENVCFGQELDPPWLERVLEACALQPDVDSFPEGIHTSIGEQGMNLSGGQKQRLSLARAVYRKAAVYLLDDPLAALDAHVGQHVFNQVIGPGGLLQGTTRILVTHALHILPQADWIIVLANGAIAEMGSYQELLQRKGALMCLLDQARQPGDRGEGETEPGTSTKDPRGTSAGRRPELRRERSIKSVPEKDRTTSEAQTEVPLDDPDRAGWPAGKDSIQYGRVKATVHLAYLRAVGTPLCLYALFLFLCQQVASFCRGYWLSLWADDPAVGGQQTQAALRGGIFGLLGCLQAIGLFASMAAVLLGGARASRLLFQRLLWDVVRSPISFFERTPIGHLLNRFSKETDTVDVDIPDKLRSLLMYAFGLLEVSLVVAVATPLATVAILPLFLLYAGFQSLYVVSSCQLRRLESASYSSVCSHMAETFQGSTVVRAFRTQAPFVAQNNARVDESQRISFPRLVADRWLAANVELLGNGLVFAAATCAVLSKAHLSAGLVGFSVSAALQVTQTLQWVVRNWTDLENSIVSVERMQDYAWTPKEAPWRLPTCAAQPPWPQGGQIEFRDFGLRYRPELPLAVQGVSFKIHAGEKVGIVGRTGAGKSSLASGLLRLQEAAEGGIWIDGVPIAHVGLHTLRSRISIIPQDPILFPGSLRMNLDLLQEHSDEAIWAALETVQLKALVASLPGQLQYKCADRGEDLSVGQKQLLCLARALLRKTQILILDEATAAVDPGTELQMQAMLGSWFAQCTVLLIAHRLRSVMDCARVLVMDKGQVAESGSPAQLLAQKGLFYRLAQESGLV
Procedure, shortened: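 HEK-293 cells transiently transfected with HiBit-tagged human ABCC6 WT cDNA, seeded 24 h post-transfection, treated 24 h at 37° C with ten 2-fold doses (top 20 μM final, 0.15% DMSO). HiBit lytic luminescence reports protein expression; Emax and EC50 derived.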

T1 sequence (P21439 whole entry): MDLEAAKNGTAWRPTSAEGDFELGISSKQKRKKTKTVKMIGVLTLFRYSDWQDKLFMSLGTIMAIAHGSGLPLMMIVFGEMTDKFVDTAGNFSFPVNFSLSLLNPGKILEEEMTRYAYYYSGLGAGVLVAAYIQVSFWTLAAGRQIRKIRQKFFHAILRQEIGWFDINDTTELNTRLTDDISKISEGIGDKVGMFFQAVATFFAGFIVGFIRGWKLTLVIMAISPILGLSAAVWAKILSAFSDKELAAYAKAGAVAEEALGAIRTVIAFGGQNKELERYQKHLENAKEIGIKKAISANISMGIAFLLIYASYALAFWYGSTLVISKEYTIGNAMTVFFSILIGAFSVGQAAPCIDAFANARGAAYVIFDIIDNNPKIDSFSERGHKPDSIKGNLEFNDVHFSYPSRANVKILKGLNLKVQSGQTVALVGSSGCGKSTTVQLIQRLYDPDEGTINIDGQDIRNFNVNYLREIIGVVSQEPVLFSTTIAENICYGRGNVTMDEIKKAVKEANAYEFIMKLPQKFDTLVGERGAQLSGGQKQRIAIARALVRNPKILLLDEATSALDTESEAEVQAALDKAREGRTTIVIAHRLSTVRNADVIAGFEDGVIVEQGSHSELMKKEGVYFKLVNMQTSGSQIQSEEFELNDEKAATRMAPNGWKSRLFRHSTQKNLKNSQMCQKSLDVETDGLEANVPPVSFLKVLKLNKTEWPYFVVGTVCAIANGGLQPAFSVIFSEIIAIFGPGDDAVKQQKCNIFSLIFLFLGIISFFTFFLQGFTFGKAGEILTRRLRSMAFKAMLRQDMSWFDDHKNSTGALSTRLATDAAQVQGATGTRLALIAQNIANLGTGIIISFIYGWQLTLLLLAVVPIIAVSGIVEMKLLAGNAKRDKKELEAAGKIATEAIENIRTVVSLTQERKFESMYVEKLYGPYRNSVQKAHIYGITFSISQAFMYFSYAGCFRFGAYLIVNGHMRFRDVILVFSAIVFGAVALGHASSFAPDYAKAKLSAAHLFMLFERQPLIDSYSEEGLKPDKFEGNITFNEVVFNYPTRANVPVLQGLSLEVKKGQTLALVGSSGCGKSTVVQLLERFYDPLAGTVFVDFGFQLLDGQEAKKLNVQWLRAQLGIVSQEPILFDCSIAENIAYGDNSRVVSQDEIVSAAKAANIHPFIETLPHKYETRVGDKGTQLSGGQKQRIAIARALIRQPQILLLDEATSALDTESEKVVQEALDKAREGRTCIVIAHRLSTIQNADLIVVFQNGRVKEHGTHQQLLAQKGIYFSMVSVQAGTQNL

EC50 (ABCB4 WT) | EC50 (ABCA4 P1380L) | EC50 (ABCC6 WT) | Structure (SMILES)
< 25000 nM | < 25000 nM | 1000 to 10000 nM | Cc1cc(Oc2nc(-c3cncc(C#N)c3)ccc2NS(C)(=O)=O)nn1C [Compound I-113]
< 25000 nM | 1000 to 10000 nM | 1000 to 10000 nM | Cc1nc(C)c(C2CC2)cc1Oc1nc(-c2cncc(C#N)c2)ccc1NS(C)(=O)=O [Compound I-229]
< 25000 nM | < 1000 nM | < 1000 nM | Cc1cc(C)c(Oc2nc(-c3cncc(C#N)c3)ccc2NS(=O)(=O)C2COC2)c(C)n1 [Compound I-228]
≥ 25000 nM | > 25000 nM | < 25000 nM | Cc1cc(C)c(Oc2nc(-c3ccn(C)c(=O)c3)ccc2NS(C)(=O)=O)c(C)n1 [Compound I-186]
≥ 25000 nM | > 25000 nM | 1000 to 10000 nM | CC(=O)N1CCN(c2ccc(NS(C)(=O)=O)c(Oc3c(C)cc(C)cc3C)n2)CC1 [Compound I-17]
≥ 25000 nM | < 1000 nM | < 1000 nM | Cc1nc(C(F)(F)F)nc(C)c1Oc1nc(-c2cncc(Cl)c2)ccc1NS(C)(=O)=O [Compound I-205]
≥ 25000 nM | > 25000 nM | 1000 to 10000 nM | Cc1cc(C)c(Oc2nc(-c3cnn(C)c3)ccc2NS(C)(=O)=O)c(C)c1 [Compound I-14]
≥ 25000 nM | > 25000 nM | 1000 to 10000 nM | Cc1cc(C)c(Oc2nc(-n3cc(C)cn3)ccc2NS(C)(=O)=O)c(C)c1 [Compound I-11]
< 1000 nM | > 25000 nM | < 1000 nM | Cc1nc(C2CC2)c(C(F)F)cc1Oc1nc(-c2cncc(C#N)c2)ccc1NS(C)(=O)=O [Compound I-179]
< 1000 nM | < 1000 nM | < 1000 nM | CCS(=O)(=O)Nc1ccc(-c2cncc(C#N)c2)nc1Oc1c(C)cc(C(F)(F)F)nc1C [Compound I-217]
< 1000 nM | < 1000 nM | < 1000 nM | Cc1cc(C(F)F)nc(C)c1Oc1nc(-c2ccnc(C#N)c2)ccc1NS(C)(=O)=O [Compound I-204]
< 25000 nM | < 1000 nM | < 1000 nM | Cc1cc(C(F)F)nc(C)c1Oc1nc(-c2ccnc(C#N)c2)ccc1NS(=O)(=O)C1CC1 [Compound I-203]
< 1000 nM | < 1000 nM | < 1000 nM | Cc1nc(C(F)F)nc(C)c1Oc1nc(-c2cncc(Cl)c2)ccc1NS(C)(=O)=O [Compound I-175]
< 1000 nM | < 25000 nM | < 1000 nM | Cc1nn(C)c(C)c1Oc1nc(-c2cncc(C#N)c2)ccc1NS(C)(=O)=O [Compound I-115]
< 1000 nM | > 25000 nM | ≥ 25000 nM | Cc1cc(C(F)(F)F)nc(C)c1Oc1nc(-c2cncc(C3COC3)c2)ccc1NS(C)(=O)=O [Compound I-198]
< 25000 nM | < 1000 nM | < 1000 nM | Cc1nc(C2CC2)c(Cl)cc1Oc1nc(-c2cncc(C#N)c2)ccc1NS(C)(=O)=O [Compound I-120]
< 1000 nM | < 1000 nM | < 1000 nM | Cc1nc(C)c(Oc2nc(-c3cncc(C4CC4)c3)ccc2NS(C)(=O)=O)c(C)n1 [Compound I-193]
< 1000 nM | < 1000 nM | < 1000 nM | Cc1cc(OC(F)(F)F)nc(C)c1Oc1nc(-c2cncc(C#N)c2)ccc1NS(C)(=O)=O [Compound I-131]
< 1000 nM | > 25000 nM | < 1000 nM | Cc1cc(C)c(Oc2nc(-c3cncc(C4COC4)c3)ccc2NS(C)(=O)=O)c(C)n1 [Compound I-216]
< 1000 nM | < 1000 nM | < 1000 nM | COc1cc(C)c(Oc2nc(-c3cncc(C#N)c3)ccc2NS(C)(=O)=O)c(C)n1 [Compound I-222]
< 1000 nM | 1000 to 10000 nM | < 1000 nM | Cc1cc(C(F)F)nc(C)c1Oc1nc(-c2cncc(C3COC3)c2)ccc1NS(C)(=O)=O [Compound I-197]
1000 to 10000 nM | 1000 to 10000 nM | 1000 to 10000 nM | Cc1cc(C)c(Oc2nc(N3CCN(C(=O)C4(C)CC4)CC3)ccc2NS(C)(=O)=O)c(C)c1 [Compound I-15]

EC50 (ABCB4 WT) | EC50 (ABCA4 P1380L) | EC50 (ABCC6 WT) | Structure (SMILES)
≥ 25000 nM | 1000 to 10000 nM | < 1000 nM | Cc1nc(C2COC2)nc(C)c1Oc1nc(-c2cncc(C#N)c2)ccc1NS(C)(=O)=O [Compound I-174]
< 1000 nM | < 1000 nM | < 1000 nM | COc1nc(C)cc(C)c1Oc1nc(-c2cncc(C#N)c2)ccc1NS(C)(=O)=O [Compound I-209]
< 25000 nM | < 25000 nM | < 1000 nM | Cc1cc(C2CC2)nc(C)c1Oc1nc(-c2cncc(Cl)c2)ccc1NS(=O)(=O)C1COC1 [Compound I-236]
< 1000 nM | < 1000 nM | < 1000 nM | Cc1cc(C(F)(F)F)nc(C)c1Oc1nc(-c2cncc(C#N)c2)ccc1NS(=O)(=O)C1CC1 [Compound I-218]
< 1000 nM | > 25000 nM | < 1000 nM | Cc1cc(N2CC(F)(F)C2)nc(C)c1Oc1nc(-c2cncc(C#N)c2)ccc1NS(C)(=O)=O [Compound I-180]
< 1000 nM | < 1000 nM | < 1000 nM | Cc1nc(C2CC2)nc(C)c1Oc1nc(-c2cncc(C#N)c2)ccc1NS(C)(=O)=O [Compound I-183]
< 25000 nM | < 25000 nM | < 1000 nM | Cc1cc(C2CC2)nc(C)c1Oc1nc(-c2cncc(C#N)c2)ccc1NS(=O)(=O)C1COC1 [Compound I-235]
≥ 25000 nM | > 25000 nM | < 1000 nM | Cc1nc(Oc2nc(-c3cncc(C#N)c3)ccc2NS(C)(=O)=O)c(C)s1 [Compound I-107]
< 25000 nM | > 25000 nM | < 1000 nM | Cc1cc(C)c(Oc2nc(-n3cnc(C)c3)ccc2NS(C)(=O)=O)c(C)c1 [Compound I-12]
< 25000 nM | 1000 to 10000 nM | < 1000 nM | Cc1cc(C)c(Oc2nc(-c3cncc(CO)c3)ccc2NS(C)(=O)=O)c(C)n1 [Compound I-227]
< 1000 nM | < 1000 nM | < 1000 nM | Cc1cc(C2CC2)c(Oc2nc(-c3cncc(C#N)c3)ccc2NS(C)(=O)=O)c(C)n1 [Compound I-171]
1000 to 10000 nM | 1000 to 10000 nM | < 1000 nM | Cc1nc(C)c(Oc2nc(-c3cncc(C#N)c3)ccc2NS(C)(=O)=O)c(C2CC2)n1 [Compound I-165]
< 1000 nM | < 1000 nM | < 1000 nM | Cc1nc(C2CCC2)nc(C)c1Oc1nc(-c2cncc(C#N)c2)ccc1NS(C)(=O)=O [Compound I-181]
1000 to 10000 nM | 1000 to 10000 nM | 1000 to 10000 nM | Cc1nc(N2CC(S(C)(=O)=O)C2)nc(C)c1Oc1nc(-c2cncc(C#N)c2)ccc1NS(C)(=O)=O [Compound I-169]
≥ 25000 nM | > 25000 nM | ≥ 25000 nM | Cc1cc(C)c(Oc2nc(-c3cc[nH]c(=O)c3)ccc2NS(C)(=O)=O)c(C)n1 [Compound I-187]
< 1000 nM | > 25000 nM | < 1000 nM | Cc1nc(OC2CC2)c(C(F)(F)F)cc1Oc1nc(-c2cncc(C#N)c2)ccc1NS(C)(=O)=O [Compound I-178]
< 1000 nM | > 25000 nM | < 1000 nM | Cc1cc(C)c(Oc2nc(-c3cncc(N4CC(F)(F)C4)c3)ccc2NS(C)(=O)=O)c(C)n1 [Compound I-195]
< 1000 nM | < 1000 nM | 1000 to 10000 nM | Cc1nc(C)c(Oc2nc(-c3cncc(C(F)F)c3)ccc2NS(C)(=O)=O)c(C)n1 [Compound I-191]
< 25000 nM | < 1000 nM | < 1000 nM | Cc1cc(C(F)F)nc(C)c1Oc1nc(-c2cncc(Cl)c2)ccc1NS(C)(=O)=O [Compound I-202]
< 25000 nM | < 25000 nM | < 1000 nM | Cc1cc(C)c(Oc2nc(-c3cncc(C4CC4)c3)ccc2NS(C)(=O)=O)c(C)n1 [Compound I-232]
≥ 25000 nM | > 25000 nM | ≥ 25000 nM | Cc1cc(C)c(Oc2nc(-c3cncc(C(C)(C)O)c3)ccc2NS(C)(=O)=O)c(C)n1 [Compound I-220]

Source: patent publication US20250228835A1, “PYRIDINYLOXYPYRIDINES AND RELATED COMPOUNDS AND THEIR USE IN TREATING MEDICAL CONDITIONS” (Rectify Pharmaceuticals, Inc., priority 2024, published 2025)
